Data: patent US20250127799A1, “DRUG CONJUGATES FOR BONE MARROW PROTECTION” (priority 2023, published 2025)
Ends that are not written are not given here. Peptide text beside a SMILES is read from it. * marks the point of attachment. X1 = O=C(CCCCCN1C(=O)CC(*)C1=O)NCCCC(O)(P(=O)(O)O)P(=O)(O)O; X2 = O=P(O)(O)SCCNCCCN*

Columns and labels:
[1] = test system: Hs578T triple-negative breast cancer cells; experiment: CCK-8 cellular proliferation assay, co-culture with chemodrugs; assay type: cell-based; details: for cellular proliferation compared to Non-treatment Control: 72 h
Procedure: In this exemplary representative experiment, a CCK-8 cellular proliferation assay was conducted for Hs578T triple-negative breast cancer cells exposed to the Carboplatin with or without protective agents.
In another exemplary representative chemoprotection experiment, Paclitaxel was used instead of Carboplatin in the CCK-8 cellular proliferation assay for Hs578T cells.

[2] = test system: A549 non-small cell lung cancer cells; experiment: as above; assay type: cell-based; details: for cellular proliferation compared to Non-treatment Control: 72 h
Procedure: In this exemplary representative experiment, a CCK-8 cellular proliferation assay was conducted for A549 non-small cell lung cancer cells exposed to the Carboplatin with or without protective agents.
In another exemplary representative chemoprotection experiment, Paclitaxel was used instead of Carboplatin in the CCK-8 cellular proliferation assay for A549 cells.

[3] = test system: human HSPCs; experiment: In vitro radioprotection for human HSPCs (CCK8 viability); details: for cellular viability compared to the group receiving no treatment at the same exposure dose: 2-8 Gy; for cellular viability: 50 μM for 4 h
Procedure: In this exemplary representative experiment, human HSPCs were seeded in a 96-well plate at a density of 2.5×10^4 per well (N=6 for each group). Next, cells were treated with a protective drug conjugate having a peptide sequence of CAPIGIAL (SEQ ID NO: 68) with acetylation at the N-terminus (e.g., AcCAPIGIAL; SEQ ID NO: 80) or amifostine alone at the final concentrations ranging from 0 to 100 μM for 4 h, followed by exposure to y-radiation (Cs-137) at 3 or 8 Gy (0.6 Gy/min). Two hours after the irradiation, the culture medium was replaced by a fresh medium. After 24 h of further incubation, a CCK8 assay was applied to evaluate the cell viability.
In this exemplary representative experiment, human HSPCs were seeded in a 96-well plate at a density of 2.5×10^4 per well (N=6 for each group).

[4] = in vivo; cited from earlier work
[5] = test system: human bone marrow mononuclear cells; experiment: Colony forming unit assay, protection of cells exposed to carboplatin; assay type: cell-based; details: for CFU counts normalized to untreated cells: 50 μM carboplatin for 4 h
Procedure: In this exemplary representative chemoprotection experiment, a colony forming unit assay was conducted for bone marrow mononuclear cells exposed to carboplatin with or without the pre-treatment with protective agents. In brief, 1.1×10^4 human bone marrow mononuclear cells were suspended in 300 μL culture medium and mixed with 30 μL solutions of PBS (control), Amifostine, WR1065, or Conjugate (with the peptide sequence of CFLG (SEQ ID NO: 18)) at various concentrations. After 2 h of incubation, cells were washed and resuspended in 300 μL culture medium, followed by incubation with 50 μM carboplatin for 4 h. Next, cells were washed and resuspended in the colony forming medium for 14 days. The number of resultant CFU in each group was then determined, and the results were normalized to the group of cells without any treatment. […] In another exemplary representative chemoprotection experiment, Amifostine and Conjugate with the peptide sequence of CFLG (SEQ ID NO: 18) with concentrations ranging from 50 to 1,000 μM were evaluated.

[6] = test system: CD2F1 male mice; experiment: In vivo radioprotective effects: 30-day survival after Cobalt-60 gamma irradiation; details: for survival rate: 12 h before 9.1 Gy
Procedure: (§1) CD2F1 male mice (N=16) were subcutaneously (sc) injected with a single dose of two different conjugates. For one protective drug conjugate (Conjugate 1), the tested doses were 200, 400, and 800 mg/kg. The structure of Conjugate 1 included amifostine as the protective drug, alendronate as the bone-targeting ligand, and a protease-cleavable peptide having the sequence of CKPLGLWAL (SEQ ID NO: 33) with acetylation at the N-terminus (e.g., AcCKPLGLWAL; SEQ ID NO: 74). […] The irradiated mice were monitored for survival for 30 days post-irradiation. […] For the vehicle control group, the mortalities of mice occurred during 8 to 17 days post-irradiation, and the final survival rate was 6.25% (1 out of 16 survived), indicating significant mortality by gamma-irradiation.
For another protective drug conjugate (Conjugate 2), the tested doses were 250, 500, 600, and 700 mg/kg, and the irradiation was conducted at 24 h post-drug administration. The structure of Conjugate 2 included amifostine as the protective drug, alendronate as the bone-targeting ligand, and a protease-cleavable peptide having the sequence of CPLGLYAL (SEQ ID NO: 29) with acetylation at the N-terminus (e.g., AcCPLGLYAL; SEQ ID NO: 76).
as §1, with “a” for “two different conjugates. For one”, “1), and” for “1),”, “250, 300,” for “200, 400,”, “350” for “800”, “0% (0” for “6.25% (1”
as §1, with “CD2F1 male mice (N=16) were subcutaneously (sc) injected CD2F1” for “CD2F1”, “a” for “two different conjugates. For one”, “1), and” for “1),”, “250, 300,” for “200, 400,”, “350” for “800”
CD2F1 male mice (N=16) were subcutaneously (sc) injected CD2F1 male mice (N=16) were subcutaneously (sc) injected with a single dose of a protective drug conjugate (Conjugate 1), and the tested doses were 50, 100, and 200 mg/kg. The structure of Conjugate 1 included amifostine as the protective drug, alendronate as the bone-targeting ligand, and a protease-cleavable peptide having the sequence of CKPLGLWAL (SEQ ID NO: 33) with acetylation at the N-terminus (e.g., AcCKPLGLWAL; SEQ ID NO: 74). […] The irradiated mice were monitored for survival for […] post-irradiation. […] For the vehicle control group, the mortalities of mice occurred during 8 to 17 days post-irradiation, and the final survival rate was 0% (0 out of 16 survived), indicating significant mortality by gamma-irradiation.
CD2F1 male mice (N=16) were subcutaneously (sc) injected CD2F1 male mice (N=16) were subcutaneously (sc) injected with a single dose of a protective drug conjugate, i.e., Conjugate 3. The tested doses were 250, 300, and 350 mg/kg. […]

[7] = molecular target: matrix metalloproteinase 9 (MMP9) (Homo sapiens, UniProt P14780); experiment: In vitro matrix metalloproteinase-based conjugate cleavage; assay type: biochemical; details: isolated enzyme, MMP9, 37° C., up to 20 h, read-out: T1/2 of cleavage (converted)
Chain of matrix metalloproteinase 9 (MMP9) (P14780 94-707, species assumed): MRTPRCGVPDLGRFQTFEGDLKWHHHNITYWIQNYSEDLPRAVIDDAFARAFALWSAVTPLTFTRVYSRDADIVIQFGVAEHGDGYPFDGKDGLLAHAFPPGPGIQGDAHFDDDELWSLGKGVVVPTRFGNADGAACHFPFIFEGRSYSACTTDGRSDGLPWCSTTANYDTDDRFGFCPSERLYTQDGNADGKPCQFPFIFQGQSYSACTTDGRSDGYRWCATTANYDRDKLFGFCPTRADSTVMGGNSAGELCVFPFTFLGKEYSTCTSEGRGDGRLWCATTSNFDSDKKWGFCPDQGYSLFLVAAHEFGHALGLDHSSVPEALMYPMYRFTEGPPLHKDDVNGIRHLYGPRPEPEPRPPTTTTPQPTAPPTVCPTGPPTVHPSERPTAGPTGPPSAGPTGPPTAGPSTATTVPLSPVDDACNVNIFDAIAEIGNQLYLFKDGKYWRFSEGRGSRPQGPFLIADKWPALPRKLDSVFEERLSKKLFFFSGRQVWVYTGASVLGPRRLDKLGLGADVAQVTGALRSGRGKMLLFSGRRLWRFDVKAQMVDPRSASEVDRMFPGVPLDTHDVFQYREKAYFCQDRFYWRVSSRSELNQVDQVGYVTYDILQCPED
Procedure: In this exemplary representative cleavage experiment, a 90 μL stock solution of protective drug conjugate (1 mg/mL) was mixed with 2 μL of matrix metalloproteinase 9 (MMP9) (10 unit/μL) and 8.2 μL of 50 mM CaCl2 solution, followed by incubation at 37° C. for up to 20 h. A 10 μL sample was taken at 0.3, 1, 2, 4, 9, or 20 h for the HPLC analysis. Three conjugates having different peptide sequences (Conjugates 1-3) were used in this test: Conjugate 1-peptide sequence of CPLSLYAL (SEQ ID NO: 65); Conjugate 2-peptide sequence of CPLSLYSL (SEQ ID NO: 66); and Conjugate 3-peptide sequence of CPLGLAL (SEQ ID NO: 67). The concentrations of the conjugate residual in samples were normalized and presented as cleavage ratios.

[8] = Conjugate cleavage in fresh bone marrow aspirate (HPLC); assay type: in vitro ADME; details: human bone marrow aspirate, same donor, 37° C., up to 6 h
Procedure: The proteolytic cleavage of conjugates determines the therapeutic window, which is controlled by the specific peptide sequence. In a representative cleavage experiment, a […] stock solution of a conjugate (30 mg/mL) was mixed with 90 μL of fresh bone marrow aspirate, followed by incubation at 37° C. for up to 6 h. A 10 μL sample was taken every hour, diluted in 90 μL acetonitrile to precipitate proteins and extract conjugates and cleavage products. The concentrations of the conjugates in samples were determined by HPLC, normalized, and presented as the cleavage ratio.

For `NCCCNCCSP(=O)(O)O` [Amifostine], the “toxicity to Hs578T cells” value ([1]; 10 to 200 μM) was “non-toxic”, the “toxicity to A549 cells” value ([2]; 10 to 200 μM) was “non-toxic” and the “cellular viability compared to the group receiving no treatment at the same exposure dose” value ([3]; 50 μM) was “much higher cellular viability”. For the same molecule, the “bone marrow residence time” value [4] was < 30 min, the pharmacokinetic circulating time [4] was < 8 min and the “mitigation of Carboplatin-caused CFU reduction” value ([5]; pretreatment 50 to 1,000 μM, dose-dependent (FIG. 8B)) was “significantly mitigated”.
For `N.N.O=C([O-])C1(C(=O)[O-])CCC1.[Pt+2]` [Carboplatin], the “cellular proliferation compared to Non-treatment Control” value ([1]; 0.1 mM Carboplatin) was ~35%, the “cellular proliferation compared to Non-treatment Control” value ([2]; 0.1 mM Carboplatin) was ~30% and the “CFU counts normalized to untreated cells” value ([5]; no protective agent (FIG. 8A)) was ~40%. The “CFU counts normalized to untreated cells” value ([5]; no protective agent (FIG. 8B)) was ~30%.
`CC(=O)N[C@@H](CSC1CC(=O)N(CCCCCC(=O)NCCCC(O)(P(=O)(O)O)P(=O)(O)O)C1=O)C(=O)N[C@@H](CCCCN)C(=O)N1CCC[C@H]1C(=O)N[C@@H](CC(C)C)C(=O)NCC(=O)N[C@@H](CC(C)C)C(=O)N[C@@H](Cc1c[nH]c2ccccc12)C(=O)N[C@@H](C)C(=O)N[C@@H](CC(C)C)C(=O)NCCCNCCSP(=O)(O)O` (stereo partly shown) [Conjugate 1] (Ac-C(X1)KPLGLWAL-X2) showed a survival rate ([6]; 50 mg/kg sc) of 75%, a survival rate ([6]; 100 mg/kg sc) of 93.75% and a 30-day survival rate ([6]; 200 mg/kg sc, 6 h before 9.2 Gy) of 68.75%. For the same molecule, the survival rate ([6]; 200 mg/kg sc) was 93.75%, the 30-day survival rate ([6]; 250 mg/kg sc, 9 h before 9.2 Gy) was 75% and the 30-day survival rate ([6]; 250 mg/kg sc, 12 h before 9.2 Gy) was 100%. For the same molecule, the 30-day survival rate ([6]; 300 mg/kg sc, 9 h before 9.2 Gy) was 87.25%, the 30-day survival rate ([6]; 300 mg/kg sc, 12 h before 9.2 Gy) was 87.5% and the 30-day survival rate ([6]; 350 mg/kg sc, 9 h before 9.2 Gy) was 56.25%. The 30-day survival rate ([6]; 350 mg/kg sc, 12 h before 9.2 Gy) was 81.25%, the 30-day survival rate ([6]; 400 mg/kg sc, 6 h before 9.2 Gy) was 81.25% and the 30-day survival rate ([6]; 800 mg/kg sc, 6 h before 9.2 Gy) was 68.75%. For the same molecule, the half-life at 0.898 mg/mL [7] was ~2 h and the “time to reach 50% conjugate cleavage” value [8] was 2.4 h.
In the case of `CC(=O)O[C@H]1C(=O)[C@@]2(C)[C@H]([C@H](OC(=O)c3ccccc3)[C@]3(O)C[C@H](OC(=O)[C@H](O)[C@@H](NC(=O)c4ccccc4)c4ccccc4)C(C)=C1C3(C)C)[C@]1(OC(C)=O)CO[C@@H]1C[C@@H]2O` [Paclitaxel], the “cellular proliferation compared to Non-treatment Control” value ([1]; 5 nM Paclitaxel) is reported as ~35% and the “cellular proliferation compared to Non-treatment Control” value ([2]; 5 nM Paclitaxel) is reported as ~30%.
“Conjugate (AcCAPIGIAL): protective drug conjugate having peptide sequence CAPIGIAL with acetylation at the N-terminus (SEQ ID NO: 80) (Ac-CAPIGIAL; also: amifostine conjugate (site not given here))” showed a cellular viability ([3]; then 2 Gy (FIG. 6B)) of 91.9%, a cellular viability ([3]; then 8 Gy (FIG. 6A)) of 61.1% and a cellular viability ([3]; then 8 Gy (FIG. 6B)) of 59.6%. The “cellular viability compared to the group receiving no treatment at the same exposure dose” value ([3]; 50 μM) was “much higher cellular viability”, the “cellular viability relative to the control group” value ([3]; 50 μM, 8 Gy) was ~2.3 fold and the “difference in cellular viability between conjugate and amifostine groups” value ([3]; 50 μM, any exposure dose from 2 Gy to 8 Gy) was “no statistical difference”. For the same molecule, the “concentration of maximum radioprotective efficacy” value ([3]; 8 Gy, 0-100 μM tested) was 50 µM and the radioprotective effect ([3]; 50 or 100 μM, 3 Gy) was “significant radioprotective effect”.
